Each compound was assayed against T1, human JAK1 (Homo sapiens, UniProt P23458) (assay: JAK1 inhibition assay (polyGT substrate / Ulight-JAK1 peptide)). Conditions: recombinant human JAK1 catalytic domain; polyGT or Ulight-JAK1 peptide assay.
T1 construct: catalytic domain, amino acids 866-1154; catalog number PV4774; purchased Invitrogen PV4774
Type: biochemical
Procedure: 1.1 JAK1 Inhibition Assay
1.1.1 JAK1 Assay polyGT Substrate
After 45 min at 30° C., reactions are stopped by adding of 25 μL/well of 150 mM phosphoric acid. […] Plates are washed 6 times with 300 μL per well of a 75 mM phosphoric acid solution and the bottom of the plates is sealed. 40 μL/well of Microscint-20 is added, the top of the plates is sealed and readout is performed using the Topcount (Perkin Elmer). Kinase activity is calculated by subtracting counts per min (cpm) obtained in the presence of a positive control inhibitor (10 μM staurosporine) from cpm obtained in the presence of vehicle. The ability of a test compound to inhibit this activity is determined as:
Percentage inhibition=((cpm determined for sample with test compound present−cpm determined for sample with positive control inhibitor)divided by(cpm determined in the presence of vehicle−cpm determined for sample with positive control inhibitor))*100.
Dose dilution series are prepared for the compounds enabling the testing of dose-response effects in the JAK1 assay and the calculation of the IC50 for each compound.
1.1.2 JAK1 Ulight-JAK1 Peptide Assay
After 60 min at room temperature, reactions were stopped by adding 20 μL/well of detection mixture (1× detection buffer (Perkin Elmer, catalog number CR97-100C), 0.5 nM Europium-anti-phosphotyrosine (PT66) (Perkin Elmer, catalog number AD0068), 10 mM EDTA). […] Kinase activity was calculated by subtracting relative fluorescence units (RFU) obtained in the presence of a positive control inhibitor (10 μM staurosporine) from RFU obtained in the presence of vehicle. The ability of a test compound to inhibit this activity was determined as:
Percentage inhibition=((RFU determined for sample with test compound present−RFU determined for sample with positive control inhibitor)divided by(RFU determined in the presence of vehicle−RFU determined for sample with positive control inhibitor))*100.
Dose dilution series were prepared for the compounds enabling the testing of dose-response effects in the JAK1 assay and the calculation of the IC50 for the compound. Each compound is routinely tested at concentration of 20 μM followed by a 1/5 serial dilution, 10 points in a final concentration of 1% DMSO. […] The data are expressed as the average IC50 from the assays±standard error of the mean.

T1 sequence (P23458 866-1154): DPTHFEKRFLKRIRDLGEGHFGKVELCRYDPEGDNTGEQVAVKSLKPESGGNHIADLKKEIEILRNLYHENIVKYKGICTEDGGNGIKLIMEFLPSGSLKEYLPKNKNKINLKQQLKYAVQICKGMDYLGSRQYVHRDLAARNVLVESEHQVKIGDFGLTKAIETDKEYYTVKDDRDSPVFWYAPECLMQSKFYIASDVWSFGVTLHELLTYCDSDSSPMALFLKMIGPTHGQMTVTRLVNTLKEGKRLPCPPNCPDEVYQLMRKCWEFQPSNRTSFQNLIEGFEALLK

Row | IC50 | Structure (SMILES)
1 | > 1000 nM | Cn1cnc2cnc(N(CC3CC3)c3ccc(C#N)cc3F)cc21 [Compound 282, 4-[Cyclopropylmethyl-(1-methyl-1H-imidazo[4,5-c]pyridin-6-yl)-amino]-3-fluoro-benzonitrile]
2 | 0.01 to 100 nM | CCc1cc(C2CCNCC2)ccc1N(C)c1cc2c(cn1)ncn2C [Compound 187, N-(2-Ethyl-4-(piperidin-4-yl)phenyl)-N,1-dimethyl-1H-imidazo[4,5-c]pyridin-6-amine]
3 | 101 to 500 nM | CN(c1cc2c(cn1)ncn2C)c1ccc(C2=CCN(C(=O)OC(C)(C)C)CC2)cc1OC(F)F [Compound 281, 4-{3-Difluoromethoxy-4-[methyl-(1-methyl-1H-imidazo[4,5-c]pyridin-6-yl)-amino]-phenyl}-3,6-dihydro-2H-pyridine-1-carboxylic acid tert-butyl ester]
4 | 501 to 1000 nM | CCc1ccccc1N(C)c1cc2c(cn1)ncn2C1CC1 [Compound 296, 1-cyclopropyl-N-(2-ethylphenyl)-N-methyl-1H-imidazo[4,5-c]pyridin-6-amine]
5 | 101 to 500 nM | CCc1cc(-c2c(C)nn(C)c2C)ccc1N(C)c1cc2c(cn1)ncn2C [Compound 138, N-(2-ethyl-4-(1,3,5-trimethyl-1H-pyrazol-4-yl)phenyl)-N,1-dimethyl-1H-imidazo[4,5-c]pyridin-6-amine]
6 | 0.01 to 100 nM | CCc1cc(C(=O)NC2CCCN(C)C2)ccc1N(C)c1cc2c(cn1)ncn2C (stereo not drawn) [Compound 152, 3-ethyl-4-(methyl(1-methyl-1H-imidazo[4,5-c]pyridin-6-yl)amino)-N-(1-methylpiperidin-3-yl)benzamide]
7 | 0.01 to 100 nM | CCc1cc(Cn2ccnc2C)ccc1N(C)c1cc2c(cn1)ncn2C [Compound 173, N-(2-Ethyl-4-((2-methyl-1H-imidazol-1-yl)methyl)phenyl)-N,1-dimethyl-1H-imidazo[4,5-c]pyridin-6-amine]
8 | 0.01 to 100 nM | CCc1cc(CNCC(C)(C)O)ccc1N(C)c1cc2c(cn1)ncn2C [Compound 169, 1-(3-ethyl-4-(methyl(1-methyl-1H-imidazo[4,5-c]pyridin-6-yl)amino)benzylamino)-2-methylpropan-2-ol]
9 | 101 to 500 nM | CCc1ccccc1N(CCC#N)c1cc2c(cn1)ncn2C [Compound 285, 3-[(2-Ethyl-phenyl)-(1-methyl-1H-imidazo[4,5-c]pyridin-6-yl)-amino]-propionitrile]
10 | > 1000 nM | CCOC(=O)c1ccc(N(CC)c2cc3c(cn2)ncn3C)cc1 [Compound 7, 4-[Ethyl-(1-methyl-1H-imidazo[4,5-c]pyridin-6-yl)-amino]-benzoic acid ethyl ester]
11 | 0.01 to 100 nM | CCc1cc(-c2n[nH]c(C)n2)ccc1N(C)c1cc2c(cn1)ncn2C [Compound 183, N-(2-ethyl-4-(5-methyl-1H-1,2,4-triazol-3-yl)phenyl)-N,1-dimethyl-1H-imidazo[4,5-c]pyridin-6-amine]
12 | > 1000 nM | CCc1cc(C(=O)O)ccc1N(C)c1cc2c(cn1)ncn2C [Compound 185, 3-Ethyl-4-(methyl(1-methyl-1H-imidazo[4,5-c]pyridin-6-yl)amino)benzoic acid]
13 | 101 to 500 nM | CN(c1cc2c(cn1)ncn2C)c1ccc(C2CCN(C(=O)OC(C)(C)C)CC2)cc1OC(F)F [Compound 286, 4-{3-Difluoromethoxy-4-[methyl-(1-methyl-1H-imidazo[4,5-c]pyridin-6-yl)-amino]-phenyl}-piperidine-1-carboxylic acid tert-butyl ester]
14 | 101 to 500 nM | CCc1cc(C(=O)NC2CNC2)ccc1N(C)c1cc2c(cn1)ncn2C [Compound 174, N-(azetidin-3-yl)-3-ethyl-4-(methyl(1-methyl-1H-imidazo[4,5-c]pyridin-6-yl)amino)benzamide]
15 | 101 to 500 nM | CCc1cc(C(=O)NC2COC2)ccc1N(C)c1cc2c(cn1)ncn2C [Compound 171, 3-ethyl-4-(methyl(1-methyl-1H-imidazo[4,5-c]pyridin-6-yl)amino)-N-(oxetan-3-yl)benzamide]
16 | > 1000 nM | CN(c1cc2c(cn1)ncn2C)c1ccc(C2CCN(C(=O)OC(C)(C)C)CC2)cc1F [Compound 279, 4-{3-Fluoro-4-[methyl-(1-methyl-M-imidazo[4,5-c]pyridin-6-yl)-amino]-phenyl}-piperidine-1-carboxylic acid tert-butyl ester]
17 | 101 to 500 nM | CCc1cc(-c2cnc(N3CCOCC3)nc2)ccc1N(C)c1cc2c(cn1)ncn2C [Compound 184, N-(2-Ethyl-4-(2-morpholinopyrimidin-5-yl)phenyl)-N,1-dimethyl-1H-imidazo[4,5-d]pyridin-6-amine]
18 | 101 to 500 nM | CCc1cc(-c2n[nH]c(C3CC3)n2)ccc1N(C)c1cc2c(cn1)ncn2C [Compound 188, N-(4-(5-cyclopropyl-1H-1,2,4-triazol-3-yl)-2-ethylphenyl)-N,1-dimethyl-1H-imidazo[4,5-c]pyridin-6-amine]
19 | 0.01 to 100 nM | CCNC(=O)NCc1ccc(N(C)c2cc3c(cn2)ncn3C)c(CC)c1 [Compound 192, 1-Ethyl-3-(3-ethyl-4-(methyl(1-methyl-1H-imidazo[4,5-c]pyridin-6-yl)amino)benzyl)urea]
20 | 101 to 500 nM | CCc1cc(C2CCN(C(=O)OC(C)(C)C)CC2)ccc1N(C)c1cc2c(cn1)ncn2C [Compound 180, tert-butyl 4-(3-ethyl-4-(methyl(1-methyl-1H-imidazo[4,5-c]pyridin-6-yl)amino)phenyl)piperidine-1-carboxylate]
21 | 0.01 to 100 nM | CCc1cc(CNC2CCS(=O)(=O)CC2)ccc1N(C)c1cc2c(cn1)ncn2C [Compound 146, {4-[(1,1-Dioxo-hexahydrothiopyran-4-ylamino)-methyl]-2-ethyl-phenyl}-methyl-(1-methyl-1H-imidazo[4,5-c]pyridin-6-yl)-amine]
22 | > 1000 nM | CC(NC(=O)OC(C)(C)C)c1ccc(N(C)c2cc3c(cn2)ncn3C)c(F)c1 (stereo not drawn) [Compound 268, tert-Butyl (1-(3-fluoro-4-(methyl(1-methyl-1H-imidazo[4,5-c]pyridin-6-yl)amino)phenyl)ethyl)carbamate]
23 | 501 to 1000 nM | CCc1cc(C(=O)NC2CN(S(C)(=O)=O)C2)ccc1N(C)c1cc2c(cn1)ncn2C [Compound 175, 3-Ethyl-4-(methyl(1-methyl-1H-imidazo[4,5-c]pyridin-6-yl)amino)-N-(1-(methylsulfonyl)azetidin-3-yl)benzamide]
24 | 501 to 1000 nM | CCc1cc(C(=O)NC2CN(C(=O)OC(C)(C)C)C2)ccc1N(C)c1cc2c(cn1)ncn2C [Compound 170, tert-butyl 3-(3-ethyl-4-(methyl(1-methyl-1H-imidazo[4,5-c]pyridin-6-yl)amino)benzamido)azetidine-1-carboxylate]
25 | 501 to 1000 nM | CC(=O)N1CC(c2ccc(N(C)c3cc4c(cn3)ncn4C)c(F)c2)C1 [Compound 278, 1-(3-{3-Fluoro-4-[methyl-(1-methyl-M-imidazo[4,5-c]pyridin-6-yl)-amino]-phenyl}-azetidin-1-yl)-ethanone]
26 | 0.01 to 100 nM | CCc1cc(-c2cn(C)cn2)ccc1N(C)c1cc2c(cn1)ncn2C [Compound 145, N-(2-ethyl-4-(1-methyl-1H-imidazol-4-yl)phenyl)-N,1-dimethyl-1H-imidazo[4,5-c]pyridin-6-amine]
27 | 501 to 1000 nM | CCc1ccccc1N(C)c1cc2c(cn1)ncn2CC [Compound 297, 1-ethyl-N-(2-ethylphenyl)-N-methyl-1H-imidazo[4,5-c]pyridin-6-amine]

Source: patent US20130217664A1, “NOVEL COMPOUNDS USEFUL FOR THE TREATMENT OF DEGENERATIVE AND INFLAMMATORY DISEASES” (priority 2012, published 2013)
